Earlier results, collected in patent publication US20220370444A1 (priority 2019, published 2022).

How the values were obtained:
[1] = system: TB; conditions: after two weeks of oral administration
[2] = not told
[3] = in vivo

In the case of `CC(C)/N=c1\cc2n(-c3ccc(Cl)cc3)c3ccccc3nc-2cc1Nc1ccc(Cl)cc1` [clofazimine], the clinical benefit [1] is listed as “no clinical benefit”, the membrane permeability [2] is listed as “high” and the “absorption in humans after oral administration” value [3] is listed as 45-62%.
